Test results published in ChEMBL document CHEMBL1134487, “Design, synthesis, and biological evaluation of analogues of the antitumor agent, 2-(4-[(7-chloro-2-quinoxalinyl)oxy]phenoxy)propionic acid (XK469)” (2001).

How the values were obtained:
Mus musculus [1] = experiment: Cytotoxicity against sc transplanted Panc-03 tumors of mouse […] origin, activity expressed as %body wt loss at the dose of 328 mg/kg, po; format: functional
Mus musculus [2] = experiment: Cytotoxicity against sc transplanted colon-26 tumors of mouse origin, activity expressed as T/C(%) at the dose of 300 mg/kg, iv; format: functional
Mus musculus [3] = experiment: Cytotoxicity against sc transplanted DMS273 sm cell tumors of mouse and human origin, activity expressed as %body wt. loss at the dose of 175 mg/kg, iv; format: functional
Mus musculus [4] = experiment: Cytotoxicity against sc transplanted Mam-16/C tumors of mouse origin, activity expressed as %body wt loss at the dose of 525 mg/kg, iv; format: functional
Mus musculus [5] = experiment: Cytotoxicity against sc transplanted colon-26 tumors of mouse origin, activity expressed as log10 Kill at the dose of 300 mg/kg, iv; format: functional, organism-based; design: dose 300 mg/kg
Mus musculus [6] = experiment: Cytotoxicity against sc transplanted colon-51 tumors of mouse origin, activity expressed as cures at the dose of 980 mg/kg, po; 1/5 cures; format: functional
Mus musculus [7] = experiment: In vivo activity tested against C3H mice bearing mammary adenocarcinoma -17/ADR tumor measured as log Kill value was based on tumors that grew at 620 mg/kg (po); format: functional, organism-based; design: dose 620 mg/kg
Mus musculus [8] = experiment: Cytotoxicity against sc transplanted B-16 melanoma tumors of mouse origin, activity expressed as T/C(%) at the dose of 300 mg/kg, iv; format: functional
Mus musculus [9] = experiment: Cytotoxicity against sc transplanted Panc-03 tumors of mouse origin, activity expressed as %T/C at the dose of 328 mg/kg, po; format: functional
Mus musculus [10] = experiment: Cytotoxicity against sc transplanted DMS273 sm cell tumors of mouse and human origin, activity expressed as T/C(%) at the dose of 175 mg/kg, iv; format: functional
Mus musculus [11] = experiment: Cytotoxicity against iv transplanted L1210 tumors of mouse origin, activity expressed as log10 Kill at the dose of 300 mg/kg, iv; format: functional, organism-based; design: dose 300 mg/kg
Mus musculus [12] = experiment: Cytotoxicity against iv transplanted AML1498 tumors of mouse origin, activity expressed as log10 Kill at the dose of 165 mg/kg, iv; format: functional, organism-based; design: dose 165 mg/kg
Mus musculus [13] = experiment: In vivo activity tested against C3H mice bearing panc-03 murine tumor measured as body weight loss at 328 mg/kg (po); format: functional
Mus musculus [14] = experiment: Cytotoxicity against sc transplanted L1210 tumors of mouse origin, activity expressed as %body wt. loss at the dose of 332 mg/kg, iv; format: functional
Mus musculus [15] = experiment: Cytotoxicity against sc transplanted colon-51 tumors of mouse origin, activity expressed as log10 Kill at the dose of 980 mg/kg, po; format: functional, organism-based; design: dose 980 mg/kg
Mus musculus [16] = experiment: In vivo activity tested against C3H mice bearing panc-03 murine tumor measured as activity rating at 328 mg/kg (po); format: functional
Mus musculus [17] = experiment: Cytotoxicity against iv transplanted AML1498 tumors of mouse origin, activity expressed as %ILS at the dose of 165 mg/kg, iv; format: functional
Mus musculus [18] = experiment: Cytotoxicity against sc transplanted Mam-16/C tumors of mouse origin, activity expressed as cures at the dose of 525 mg/kg, iv; 1/5 cures; format: functional
Mus musculus [19] = experiment: Cytotoxicity against sc transplanted colon-26 tumors of mouse origin, activity expressed as %body wt. loss at the dose of 300 mg/kg, iv; format: functional
Mus musculus [20] = experiment: In vivo activity tested against C3H mice bearing mammary adenocarcinoma -17/ADR tumor measured as body weight loss at 620 mg/kg (po); format: functional
Mus musculus [21] = experiment: Cytotoxicity against sc transplanted Mam-17/0 tumors of mouse origin, activity expressed as cures at the dose of 620 mg/kg, iv;p 0/5 cures; format: functional
Mus musculus [22] = experiment: Cytotoxicity against sc transplanted Mam-16/C/Taxol tumors of mouse origin, activity expressed as %log kill at the dose of 480 mg/kg, iv; format: functional, organism-based; design: dose 480 mg/kg
Mus musculus [23] = experiment: Cytotoxicity against sc transplanted B-16 melanoma tumors of mouse origin, activity expressed as %body wt. loss at the dose of 300 mg/kg, iv; format: functional
Mus musculus [24] = experiment: Cytotoxicity against iv transplanted AML1498 tumors of mouse origin, activity expressed as cures at the dose of 165 mg/kg, iv; 0/5 cures; format: functional
Mus musculus [25] = experiment: Cytotoxicity against sc transplanted L1210 tumors of mouse origin, activity expressed as cures at the dose of 332 mg/kg, iv; 0/5 cures; format: functional
Mus musculus [26] = experiment: Cytotoxicity against sc transplanted Mam-16/C/Taxol tumors of mouse origin, activity expressed as %body wt. loss at the dose of 480 mg/kg, iv; format: functional
Mus musculus [27] = experiment: Cytotoxicity against sc transplanted DMS273 sm cell tumors of mouse and human origin, activity expressed as cures at the dose of 175 mg/kg, iv; 0/6 cures; format: functional
Mus musculus [28] = experiment: In vivo activity tested against C3H mice bearing mammary adenocarcinoma -17/ADR tumor measured as activity rating at 620 mg/kg (po); format: functional
Mus musculus [29] = experiment: Cytotoxicity against sc transplanted Mam-17/Adr tumors of mouse origin, activity expressed as %body wt. loss at the dose of 620 mg/kg, iv; format: functional
Mus musculus [30] = experiment: Cytotoxicity against sc transplanted Squam-lung-LC12 tumors of mouse, activity expressed as %body wt loss at the dose of 400 mg/kg, iv; format: functional
Mus musculus [31] = experiment: Cytotoxicity against sc transplanted Mam-16/C/Adr tumors of mouse origin, activity expressed as […] at the dose of 400 mg/kg, iv; format: functional, organism-based; design: dose 400 mg/kg
Mus musculus [32] = experiment: Cytotoxicity against sc transplanted colon-38 tumors of mouse origin, activity expressed as %T/C value at the dose of 546 mg/kg, iv; format: functional
Mus musculus [33] = experiment: Cytotoxicity against sc transplanted Panc-02 tumors of mouse origin, activity expressed as log10 Kill at the dose of 600 mg/kg, iv; format: functional, organism-based; design: dose 600 mg/kg
Mus musculus [34] = experiment: Cytotoxicity against sc transplanted Mam-16/C/Taxol tumors of mouse origin, activity expressed as cures at the dose of 480 mg/kg, iv; 0/5 cures; format: functional
Mus musculus [35] = experiment: Cytotoxicity against sc transplanted Squam-lung-LC12 tumors of mouse origin, activity expressed as log kill at the dose of 400 mg/kg, iv; All cures; format: functional, organism-based; design: dose 400 mg/kg
Mus musculus [36] = experiment: Cytotoxicity against sc transplanted Mam-17/Adr tumors of mouse origin, activity expressed as T/C(%) at the dose of 620 mg/kg, iv; format: functional
Mus musculus [37] = experiment: Cytotoxicity against sc transplanted Mam-17/0 tumors of mouse origin, activity expressed as log10 Kill at the dose of 620 mg/kg, iv; format: functional, organism-based; design: dose 620 mg/kg
Mus musculus [38] = experiment: Cytotoxicity against sc transplanted L1210 tumors of mouse origin, activity expressed as log10 Kill at the dose of 332 mg/kg, iv; format: functional, organism-based; design: dose 332 mg/kg
Mus musculus [39] = experiment: Cytotoxicity against sc transplanted Mam-16/C tumors of mouse origin, activity expressed as %T/C at the dose of 525 mg/kg, iv; format: functional
Mus musculus [40] = experiment: Cytotoxicity against sc transplanted Mam-16/C tumors of mouse origin, activity expressed as log kill at the dose of 525 mg/kg, iv; format: functional, organism-based; design: dose 525 mg/kg
Mus musculus [41] = experiment: Cytotoxicity against sc transplanted colon-51 tumors of mouse origin, activity expressed as %body wt. loss at the dose of 980 mg/kg, po; format: functional

Question: Which Body weight loss (Mus musculus [1]) does the source give for CC(Oc1ccc(Oc2cnc3ccc(Cl)cc3n2)cc1)C(=O)O (stereo unspecified) here?
Answer: Its Body weight loss is -4%.

Question: And the T/C (Mus musculus [2])?
Answer: Its T/C is 14%.

Question: What about the Body weight loss (Mus musculus [3]) of the same compound?
Answer: Its Body weight loss is -8%.

Question: And the Body weight loss (Mus musculus [4])?
Answer: Its Body weight loss is -9%.

Question: What about the Log kill (Mus musculus [5]) of the same compound?
Answer: The Log kill was 1.3.

Question: And the Cures (Mus musculus [6])?
Answer: The Cures was 1.

Question: And the Log kill (Mus musculus [7])?
Answer: Its Log kill is 3.9.

Question: What about the T/C (Mus musculus [8]) of the same compound?
Answer: Its T/C is 4%.

Question: What about the T/C (Mus musculus [9]) of the same compound?
Answer: The T/C was 0%.

Question: And the T/C (Mus musculus [10])?
Answer: The T/C was 14%.

Question: What about the Log kill (Mus musculus [11]) of the same compound?
Answer: The Log kill was 6.4.

Question: What about the Log kill (Mus musculus [12]) of the same compound?
Answer: Its Log kill is 2.

Question: What about the Body weight loss (Mus musculus [13]) of the same compound?
Answer: The Body weight loss was -4%.

Question: And the Body weight loss (Mus musculus [14])?
Answer: Its Body weight loss is -16%.

Question: And the Log kill (Mus musculus [15])?
Answer: Its Log kill is 2.7.

Question: And the Activity rating (Mus musculus [16])?
Answer: Its Activity rating is greater than 2.8.

Question: What about the ILS at 165 mg/kg (Mus musculus [17]) of the same compound?
Answer: The ILS at 165 mg/kg was 30%.

Question: What about the Cures (Mus musculus [18]) of the same compound?
Answer: The Cures was 1.

Question: And the Body weight loss (Mus musculus [19])?
Answer: Its Body weight loss is -12%.

Question: And the Body weight loss (Mus musculus [20])?
Answer: The Body weight loss was -4%.

Question: And the Cures (Mus musculus [21])?
Answer: Its Cures is 0.

Question: And the Log kill (Mus musculus [22])?
Answer: The Log kill was 2.7.

Question: And the Body weight loss (Mus musculus [23])?
Answer: Its Body weight loss is -11%.

Question: What about the Cures (Mus musculus [24]) of the same compound?
Answer: The Cures was 0.

Question: What about the Cures (Mus musculus [25]) of the same compound?
Answer: The Cures was 0.

Question: What about the Body weight loss (Mus musculus [26]) of the same compound?
Answer: The Body weight loss was -11%.

Question: What about the Cures (Mus musculus [27]) of the same compound?
Answer: The Cures was 0.

Question: What about the Activity rating (Mus musculus [28]) of the same compound?
Answer: Its Activity rating is greater than 2.8.

Question: And the Body weight loss (Mus musculus [29])?
Answer: The Body weight loss was -4%.

Question: And the Body weight loss (Mus musculus [30])?
Answer: The Body weight loss was -3%.

Question: What about the Log kill (Mus musculus [31]) of the same compound?
Answer: The Log kill was 4.1.

Question: And the T/C (Mus musculus [32])?
Answer: Its T/C is 0%.

Question: What about the Log kill (Mus musculus [33]) of the same compound?
Answer: The Log kill was 2.8.

Question: What about the Cures (Mus musculus [34]) of the same compound?
Answer: Its Cures is 0.

Question: What about the Log kill (Mus musculus [35]) of the same compound?
Answer: The Log kill was “All cures”.

Question: What about the T/C (Mus musculus [36]) of the same compound?
Answer: The T/C was 2%.

Question: What about the Log kill (Mus musculus [37]) of the same compound?
Answer: The Log kill was 3.4.

Question: And the Log kill (Mus musculus [38])?
Answer: Its Log kill is 0.8.

Question: What about the T/C (Mus musculus [39]) of the same compound?
Answer: Its T/C is 0%.

Question: And the Log kill (Mus musculus [40])?
Answer: The Log kill was 5.2.

Question: And the Body weight loss (Mus musculus [41])?
Answer: Its Body weight loss is -5%.
